From patent US9682955B2, “Quinazoline derivatives useful as CB-1 inverse agonists” (Janssen Pharmaceutica NV, priority 2014, dated 2017)
pEC50: −log10 of the molar value.

How the values were obtained:
[1] = molecular target: Human CB1R (Cannabanoid receptor 1) (Homo sapiens (Human), UniProt P21554); experiment: CB-1 in vitro cAMP assay (HTRF); assay type: cell-based; settings: mean where tested more than once
Procedure, shortened: (§1)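 HEK-293 cells stably transfected with the human receptor, plated overnight at 4E5 cells/mL. Compounds given as 1/3 serial dilutions from 10 mM DMSO stocks. Stimulation in HBSS/5 mM HEPES/0.1% BSA with 0.5 mM IBMX and forskolin (1.5 μM in buffer); cAMP measured by competitive HTRF immunoassay (d2-cAMP, cryptate anti-cAMP) against a cAMP standard curve.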

[2] = molecular target: Human CB2R (Cannabanoid receptor 2) (Homo sapiens (Human), UniProt P34972); experiment: CB-2 in vitro cAMP assay (HTRF); assay type: cell-based; settings: mean where tested more than once
Procedure, shortened: as §1

Human CB1R (Cannabanoid receptor 1), sequence (P21554 whole entry): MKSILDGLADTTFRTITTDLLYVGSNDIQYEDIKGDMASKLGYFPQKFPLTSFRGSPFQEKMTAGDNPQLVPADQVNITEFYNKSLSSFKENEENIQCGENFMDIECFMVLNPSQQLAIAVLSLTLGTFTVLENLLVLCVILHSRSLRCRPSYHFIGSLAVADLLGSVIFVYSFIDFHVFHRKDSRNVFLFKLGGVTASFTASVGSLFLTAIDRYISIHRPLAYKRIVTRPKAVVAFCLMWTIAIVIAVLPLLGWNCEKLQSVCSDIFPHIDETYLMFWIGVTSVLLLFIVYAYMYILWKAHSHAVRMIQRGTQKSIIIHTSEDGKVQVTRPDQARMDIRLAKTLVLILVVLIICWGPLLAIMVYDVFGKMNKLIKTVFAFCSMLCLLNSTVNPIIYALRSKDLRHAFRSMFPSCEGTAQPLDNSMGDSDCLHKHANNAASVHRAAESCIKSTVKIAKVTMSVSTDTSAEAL
Human CB2R (Cannabanoid receptor 2), sequence (P34972 whole entry): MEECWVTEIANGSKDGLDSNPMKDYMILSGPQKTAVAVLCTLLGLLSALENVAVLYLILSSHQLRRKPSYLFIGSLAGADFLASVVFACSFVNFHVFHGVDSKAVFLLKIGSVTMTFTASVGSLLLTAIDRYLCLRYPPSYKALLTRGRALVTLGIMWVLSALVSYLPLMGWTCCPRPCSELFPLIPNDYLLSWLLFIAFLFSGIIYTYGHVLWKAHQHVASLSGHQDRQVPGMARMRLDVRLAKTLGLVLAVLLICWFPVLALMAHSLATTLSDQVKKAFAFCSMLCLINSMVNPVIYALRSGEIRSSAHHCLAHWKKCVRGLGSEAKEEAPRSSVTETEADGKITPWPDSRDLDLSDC

pEC50 [1]	pEC50 [2]	Compound
7.17	< 5.00	O=S(=O)(NC1CCN(c2ncnc3ccc(C(c4ccc(Cl)cc4)c4ccc(Cl)cc4)cc23)CC1)C(F)(F)F [Compound #104, N-(1-(6-(bis(4-chlorophenyl)methyl)quinazolin-4-yl)piperidin-4-yl)-1,1,1-trifluoromethanesulfonamide]
7.15	5.24	CC(=O)Nc1nc(NC2CCN(S(=O)(=O)C(F)(F)F)CC2)c2cc(C(c3ccc(Cl)cc3)c3ccc(Cl)cc3)ccc2n1 [Compound #106, N-(6-(bis(4-chlorophenyl)methyl)-4-((1-((trifluoromethyl)sulfonyl)piperidin-4-yl)amino)quinazolin-2-yl)acetamide]
7.12	< 5.00	Nc1nc(NC2CCN(S(=O)(=O)C(F)(F)F)CC2)c2cc(C(c3ccc(Cl)cc3)c3ccc(Cl)cc3)ccc2n1 [Compound #107, 6-(bis(4-chlorophenyl)methyl)-N4-(1-((trifluoromethyl)sulfonyl)piperidin-4-yl)quinazoline-2,4-diamine]
8.10	< 5.00	O=S(=O)(N1CCC(Nc2nc(C3CC3)nc3ccc(C(c4ccc(Cl)cc4)c4ccc(Cl)cc4)cc23)CC1)C(F)(F)F [Compound #108, 6-(bis(4-chlorophenyl)methyl)-2-cyclopropyl-N-(1-((trifluoromethyl)sulfonyl)piperidin-4-yl)quinazolin-4-amine]
7.39	5.49	COC(=O)CS(=O)(=O)N1CCC(Nc2ncnc3ccc(C(c4ccc(Cl)cc4)c4ccc(Cl)cc4)cc23)CC1 [Compound #110, Methyl 2-((4-((6-(bis(4-chlorophenyl)methyl)quinazolin-4-yl)amino)piperidin-1-yl)sulfonyl)acetate]
6.60	< 5.00	CNc1nc(NC2CCN(S(=O)(=O)C(F)(F)F)CC2)c2cc(C(c3ccc(Cl)cc3)c3ccc(Cl)cc3)ccc2n1 [Compound #113, 6-(bis(4-chlorophenyl)methyl)-N2-methyl-N4-(1-((trifluoromethyl)sulfonyl)piperidin-4-yl)quinazoline-2,4-diamine]
7.49	5.25	O=S(=O)(N1CCC(Nc2nc(O)nc3ccc(C(c4ccc(Cl)cc4)c4ccc(Cl)cc4)cc23)CC1)C(F)(F)F [Compound #114, 6-(bis(4-chlorophenyl)methyl)-4-((1-((trifluoromethyl)sulfonyl)piperidin-4-yl)amino)quinazolin-2-ol]
7.96	6.71	N#CC1(c2ccccc2)CCC(Nc2ncnc3ccc(C(c4ccc(Cl)cc4)c4ccc(Cl)cc4)cc23)CC1 (centres unmarked) [Compound #118, 4-((6-(bis(4-chlorophenyl)methyl)quinazolin-4-yl)amino)-1-phenylcyclohexanecarbonitrile]
8.40	5.67	O=S(=O)(N1CCCC1)N1CCC(Nc2ncnc3ccc(C(c4ccc(Cl)cc4)c4ccc(Cl)cc4)cc23)CC1 [Compound #120, 6-(bis(4-chlorophenyl)methyl)-N-(1-(pyrrolidin-1-ylsulfonyl)piperidin-4-yl)quinazolin-4-amine]
7.28	< 5.00	FC(F)(F)c1ccc(Nc2ncnc3ccc(C(c4ccc(Cl)cc4)c4ccc(Cl)cc4)cc23)cc1Cl [Compound #122, 6-(bis(4-chlorophenyl)methyl)-N-(3-chloro-4-(trifluoromethyl)phenyl)quinazolin-4-amine]
8.70	6.31	FC(F)(F)CN1CCC(Nc2ncnc3ccc(C(c4ccc(Cl)cc4)c4ccc(Cl)cc4)cc23)CC1 [Compound #123, 6-(bis(4-chlorophenyl)methyl)-N-(1-(2,2,2-trifluoroethyl)piperidin-4-yl)quinazolin-4-amine]
8.70	6.81	Clc1ccc(C(c2ccc(Cl)cc2)c2ccc3ncnc(NC4CCN(c5ccccn5)CC4)c3c2)cc1 [Compound #130, 6-(bis(4-chlorophenyl)methyl)-N-(1-(pyridin-2-yl)piperidin-4-yl)quinazolin-4-amine]
6.76	< 4.85	CN(Cc1ccc(C(F)(F)F)cc1)c1ncnc2ccc(C(c3ccc(Cl)cc3)c3ccc(Cl)cc3)cc12 [Compound #132, 6-(bis(4-chlorophenyl)methyl)-N-methyl-N-(4-(trifluoromethyl)benzyl)quinazolin-4-amine]
8.15	5.65	O=C(CC(F)(F)F)N1CCC(Nc2ncnc3ccc(C(c4ccc(Cl)cc4)c4ccc(Cl)cc4)cc23)CC1 [Compound #133, 1-(4-((6-(bis(4-chlorophenyl)methyl)quinazolin-4-yl)amino)piperidin-1-yl)-3,3,3-trifluoropropan-1-one]
6.71	< 5.00	O=S(=O)(c1ccc(Nc2ncnc3ccc(C(c4ccc(Cl)cc4)c4ccc(Cl)cc4)cc23)cc1)C(F)(F)F [Compound #134, 6-(bis(4-chlorophenyl)methyl)-N-(4-((trifluoromethyl)sulfonyl)phenyl)quinazolin-4-amine]
8.52	< 5.00	FC(F)(F)c1cccc(CNc2ncnc3ccc(C(c4ccc(Cl)cc4)c4ccc(Cl)cc4)cc23)c1 [Compound #136, 6-(bis(4-chlorophenyl)methyl)-N-(3-(trifluoromethyl)benzyl)quinazolin-4-amine]
8.70	6.55	Clc1ccc(C(c2ccc(Cl)cc2)c2ccc3ncnc(NC4CCN(c5ccccc5)CC4)c3c2)cc1 [Compound #137, 6-(bis(4-chlorophenyl)methyl)-N-(1-phenylpiperidin-4-yl)quinazolin-4-amine]
8.70	6.11	Clc1ccc(C(c2ccc(Cl)cc2)c2ccc3ncnc(NC4CCN(c5ncccn5)CC4)c3c2)cc1 [Compound #139, 6-(bis(4-chlorophenyl)methyl)-N-(1-(pyrimidin-2-yl)piperidin-4-yl)quinazolin-4-amine]
6.24	< 5.00	O=S(=O)(c1ccc(Nc2ncnc3ccc(C(c4ccc(Cl)cc4)c4nccs4)cc23)cc1)C(F)(F)F (centres unmarked) [Compound #142, 6-((4-chlorophenyl)(thiazol-2-yl)methyl)-N-(4-((trifluoromethyl)sulfonyl)phenyl)quinazolin-4-amine]
7.04	< 5.00	FC(F)(F)c1ccc(Nc2ncnc3ccc(C(c4ccc(Cl)cc4)c4ccc(Cl)cc4)cc23)cc1 [Compound #143, 6-(bis(4-chlorophenyl)methyl)-N-(4-(trifluoromethyl)phenyl)quinazolin-4-amine]
6.79	5.56	FC(F)(F)c1ccc(Nc2ncnc3ccc(C(c4ccc(Cl)cc4)c4nccs4)cc23)cc1 (centres unmarked) [Compound #144, 6-((4-chlorophenyl)(thiazol-2-yl)methyl)-N-(4-(trifluoromethyl)phenyl)quinazolin-4-amine]
8.30	6.10	O=S(=O)(N1CCC(Nc2ncnc3ccc(C(c4ccc(Cl)cc4)c4ccc(Cl)cc4)cc23)CC1)C(F)(F)F [Compound #145, 6-(bis(4-chlorophenyl)methyl)-N-(1-((trifluoromethyl)sulfonyl)piperidin-4-yl)quinazolin-4-amine]
8.10	6.01	O=S(=O)(N1CCC(Nc2ncnc3ccc(C(c4ccc(Cl)cc4)c4nccs4)cc23)CC1)C(F)(F)F (centres unmarked) [Compound #146, 6-((4-chlorophenyl)(thiazol-2-yl)methyl)-N-(1-((trifluoromethyl)sulfonyl)piperidin-4-yl)quinazolin-4-amine]
5.40	5.12	O=C(O)c1cccc(CN2CCC(Nc3ncnc4ccc(C(c5ccc(Cl)cc5)c5ccc(Cl)cc5)cc34)C2)c1 (centres unmarked) [compound 17, 3-((3-(6-(bis(4-chlorophenyl)methyl)quinazolin-4-ylamino)pyrrolidin-1-yl)methyl)benzoic acid]
5.32	5.33	O=C(O)c1ccccc1CN1CCC(Nc2ncnc3ccc(C(c4ccc(Cl)cc4)c4ccc(Cl)cc4)cc23)CC1 [compound 21, 2-((4-(6-(bis(4-chlorophenyl)methyl)quinazolin-4-ylamino)piperidin-1-yl)methyl)benzoic acid]
6.92	< 5.00	Oc1ccc(CN2CCC(Nc3ncnc4ccc(C(c5ccc(Cl)cc5)c5ccc(Cl)cc5)cc34)CC2)cc1 [compound 27, 4-((4-(6-(bis(4-chlorophenyl)methyl)quinazolin-4-ylamino)piperidin-1-yl)methyl)phenol]
6.75	< 5.00	O=C(O)c1ccc(CN2CCC(Nc3ncnc4ccc(C(c5ccc(Cl)cc5)c5ccc(Cl)cc5)cc34)CC2)s1 [compound 34, 5-((4-(6-(bis(4-chlorophenyl)methyl)quinazolin-4-ylamino)piperidin-1-yl)methyl)thiophene-2-carboxylic acid]
6.72	5.45	NC(=O)c1ccc(CN2CCC(Nc3ncnc4ccc(C(c5ccc(Cl)cc5)c5ccc(Cl)cc5)cc34)CC2)cc1 [compound 38, 4-((4-(6-(bis(4-chlorophenyl)methyl)quinazolin-4-ylamino)piperidin-1-yl)methyl)benzamide]
6.24	< 5.00	O=C(O)c1ccc(CN2CCC(Nc3ncnc4ccc(C(c5ccc(Cl)cc5)c5ccc(Cl)cc5)cc34)CC2)cc1 [compound 44, 4-((4-(6-(bis(4-chlorophenyl)methyl)quinazolin-4-ylamino)piperidin-1-yl)methyl)benzoic acid]
6.23	5.48	O=C(O)COc1nc(NCc2cccc(C(F)(F)F)c2)c2cc(C(c3ccc(Cl)cc3)c3ccc(Cl)cc3)ccc2n1 [compound 51, 2-((6-(bis(4-chlorophenyl)methyl)-4-((3-(trifluoromethyl)benzyl)amino)quinazolin-2-yl)oxy)acetic acid]

Compound	pEC50 [1]	pEC50 [2]
O=C(NC(CO)(CO)CO)c1ccc(N2CCC(Nc3ncnc4ccc(C(c5ccc(Cl)cc5)c5ccc(Cl)cc5)cc34)CC2)cc1 [compound 42]	6.74	6.67
